One data set deals with S. aureus, 209P. In words: MIC against S. aureus, 209P. The format is cell-based. The settings on record: Staphylococcus aureus. An excerpt: (§1) Antibacterial activities of certain compounds (I) of this invention and corresponding 19-formylmacrolide antibiotics as well as their levels in blood and therapeutic effects for infectious diseases upon their oral administration are compared in Table 2.
MIC (μg/ml): S. aureus, 209P

A short description of data set [1]: Antibiotics levels in blood upon oral administration at 100 mg/kg to mice (by the paper disk method). It is filed as in vivo. The note with it: mouse, ND: Below detectable limit; for Cmax: read-out: Antibiotics levels in blood upon oral administration: Peak value. Here is the method:
as §1
Antibiotics levels in blood
upon oral administration at
100 mg/kg to mice (by the paper
disk method) (μg · h/ml)

Data set [2] relates to S. pyogenes, S-23. In words: Treatment results of infectious diseases of mice by oral administration. It is filed as in vivo. The settings on record: Streptococcus pyogenes, S23; mice infected with S. pyogenes S-23, oral administration.
Description: as §1
infectious diseases of mice

For data set [3], the system named is S. pyogenes, S-23. Kind of data set: MIC against infective microorganism S. pyogenes, S-23. It is filed as cell-based. The note with it: Streptococcus pyogenes, S23.
Description: as §1

In brackets after ≈: the same amount, converted by molar mass.

In general, MIC refers to the lowest concentration that inhibits growth of the organism. As a reminder, the AUC is concentration integrated over time. Higher therefore signals high exposure. Take `CCC(=O)OC1CC(=O)OC(CC)C(COC2OC(C)CC(OC)C2OC)C=C(C)C=CC(=O)C(C)CC(CC=O)C(OC2OC(C)C(O)C(N(C)C)C2O)C1C` (stereo not drawn) [Example 2a, 3O--Propionyl-4"-deoxydesmycosin, reference compound]: in the data set with S. aureus, 209P, the MIC amounted to 0.2 µg/mL (≈ 0.246 µM). In addition, in data set [1], the area under the curve (AUC) worked out at 1570 ng·h/mL and the Cmax worked out at 420 ng/mL.

For `CCC(=O)OC=CC1CC(C)C(=O)C=CC(C)=CC(COC2OC(C)CC(OC)C2OC)C(CC)OC(=O)CC(OC(=O)CC)C(C)C1OC1OC(C)C(O)C(N(C)C)C1O` (stereo not drawn) [Example 2b, 3,20-Di-O-propionyl-19, 20-enol-4"-deoxydesmycosin], the MIC against S. aureus, 209P turned out to be 0.39 µg/mL (≈ 0.449 µM). Also, in data set [1], the AUC came out at 2800 ng·h/mL and the Cmax stood at 2630 ng/mL.

For orientation: ED50 means the dose that gives a 50% effect, or the effect in half of the subjects. High values mean weaker potency, low ones greater potency. Compound `CCC(=O)OC1CC(=O)OC(CC)C(COC2OC(C)C(O)C(OC)C2OC)C=C(C)C=CC(=O)C(C)CC(CC=O)C(OC2OC(C)CC(N(C)C)C2O)C1C` (stereo not drawn) [Example 3a, 3O--Propionyl-4'deoxydesmycosin, reference compound] showed a median effective dose (ED50) in the data set on S. pyogenes, S-23 [2] of over 200 mg/kg. The minimal inhibitory concentration (MIC) in the data set on S. aureus, 209P worked out at 0.2 µg/mL (≈ 0.246 µM); in the data set with S. pyogenes, S-23 [3], 0.05 µg/mL (≈ 0.0616 µM). Also, the area under the curve (AUC) in data set [1] came out at 1790 ng·h/mL. Further, the Cmax in data set [1] amounted to 430 ng/mL.

Take `CCC(=O)OC=CC1CC(C)C(=O)C=CC(C)=CC(COC2OC(C)C(O)C(OC)C2OC)C(CC)OC(=O)CC(OC(=O)CC)C(C)C1OC1OC(C)CC(N(C)C)C1O` (stereo not drawn) [Example 3b, 3,20-Di-O-propionyl-19,20-enol-4'-deoxydesmycosin]: the ED50 in the data set with S. pyogenes, S-23 [2] stood at 59 mg/kg. In addition, the MIC was found to be 0.39 µg/mL (≈ 0.449 µM) with S. aureus, 209P and 0.2 µg/mL (≈ 0.23 µM) with S. pyogenes, S-23 [3]. The compound further yielded an exposure (AUC) in data set [1] of 4900 ng·h/mL. The Cmax in data set [1] came to 2710 ng/mL.

As to `CCC(=O)OC1CC(=O)OC(CC)C(COC(=O)N(C)C)C=C(C)C=CC(=O)C(C)CC(CC=O)C(OC2OC(C)C(O)C(N(C)C)C2O)C1C` (stereo not drawn) [Ia, 3O--Propionyl-23-O--dimethylcarbamoyl-OMT, reference compound], in the data set on S. pyogenes, S-23 [2], the ED50 was over 400 mg/kg. Also, the MIC in the data set with S. aureus, 209P is 0.2 µg/mL (≈ 0.276 µM); against S. pyogenes, S-23 [3] it was 0.1 µg/mL (≈ 0.138 µM).

Compound `CCC(=O)OC=CC1CC(C)C(=O)C=CC(C)=CC(COC(=O)N(C)C)C(CC)OC(=O)CC(OC(=O)CC)C(C)C1OC1OC(C)C(O)C(N(C)C)C1O` (stereo not drawn) [Ib, 3,20-Di-O-propionyl-19,20-enol-23-O-dimethylcarbamoyl-OMT] displayed a median effective dose (ED50) in the data set with S. pyogenes, S-23 [2] of 100 to 200 mg/kg. For the same compound, in the data set on S. aureus, 209P, the MIC was 0.78 µg/mL (≈ 0.999 µM). In addition, in data set [1], the area under the curve (AUC) is 6000 ng·h/mL and the Cmax was found to be 3000 ng/mL. In the data set on S. pyogenes, S-23 [3], this compound displayed an MIC of 0.78 µg/mL (≈ 0.999 µM).

Values taken from patent US4804749A, “20-O-Acyl-19,20-enolmacrolide antibiotic derivatives” (Toyo Jozo Co., Ltd., priority 1986, dated 1989).
